The values below come from patent publication US8680142B2, “Ascorbate, vitamin K3 and hydroxytolans in the treatment of cancer” (Kent State University, priority 2007, dated 2014).

Read-outs that look alike come from different tables or passages of the source.

Series [1] relates to T24 Human Bladder Cancer Cells. In words: MTT cytotoxicity assay against T24 cells. Format: cell-based. The note with it: for IC50: Homo sapiens; for increase of cytotoxic potency in the combination over compound alone: VC/HT-1 200:1 after VC+VK3 pretreatment. As to the method:
After 1 or 2 days of incubation at 37° C. in humidified CO2 in air, a colorimetric MTT assay (see below) was performed to evaluate the number of remaining viable T24 cells in each well.
The hydroxytolan HT-1 was dissolved in DMSO as 2 mM stock and was then subsequently diluted in MEM so that the final DMSO concentration in any well was <1%. Doubling dilutions of this stock solution were carried out as above.
This assay measures the formation of a colored product produced from a chromogenic substrate, the tetrazole 3-[4,5-dimethylthiazol-2-yl]-2,5 diphenyltetrazolium bromide (“MTT”). The yellow MTT is reduced to purple formazan in the mitochondria of living cells. A solubilization solution (typically dimethyl sulfoxide or sodium dodecyl sulfate (SDS) in dilute hydrochloric acid) is added to dissolve the insoluble purple formazan product into a colored solution. The absorbance of this colored solution is quantified by measuring at a certain wavelength (usually between 500 and 600 nm) by a spectrophotometer. […] This MTT assay is used widely to assess the cytotoxicity and selectivity of compounds such as anti-cancer drugs. The assay is suitable for rapid toxicity characterization of a test agent such as a drug formulation.
A lower CD50 indicates a greater cytotoxic activity (as a lower amount of the agent is needed to achieve a fixed level of cytotoxicity). Two agents can be compared by examining the fold-increase or decrease in their CD50 values.
The CD50 values were interpolated from the curves generated using 12 serial dilutions. When individual compounds were used a single CD50 value is shown. When a combination of two compounds was used, the CD50 of both compounds is presented. Values shown are the mean±standard error of three experiments with six readings per experiment.

Another series concerns terminal cancer patients. The note with it: cited from earlier work.
The test system of series [2] is patients with advanced cancer. Particulars: 10 g oral VC; double-blind, placebo-controlled; cited from earlier work.
The next series relates to Mice. The note with it: daily 6.5 g/Kg for 6 weeks and 2 g/Kg for 2 years; cited from earlier work.
The test system of a further series is hepatoma. The note with it: 10 mg/2 mL i.p. weekly for 4 weeks, cited from earlier work.
Another series has as its system tumor growth. The note with it: cited from earlier work.
Series [3] relates to advanced lung cancer patients. Particulars: VK3 with mitomycin C, cited from earlier work.
For series [4], the system named is gastrointestinal cancer patients. The note with it: 43 patients; VK3 with mitomycin C; cited from earlier work.
Another series concerns livers of nude mice. The note with it: appreciably larger doses of VK3; cited from earlier work.
The conditions of series [5]: cited from earlier work.
A further series relates to humans. The note with it: cited from earlier work.
Another series has as its system normal cells. The note with it: cited from earlier work.
The mark [6] stands for this setting: T-24, 24 h, incubation time 1 day, compound alone, read-out: CD50 of compounds tested Individually.
Setting [7] is: T-24, 48 h, incubation time 2 days, compound alone, read-out: CD50 of compounds tested Individually.
Where [8] appears, read: T-24, read-out: CD50 of each compound tested in combination after pretreatment with VC and VK3, incubation time 1 day, VC:HT-1 200:1 mixture, 2 h pretreatment with 150 μM VC and 1.5 μM VK3.
[9] abbreviates: T-24, read-out: CD50 of each compound tested in combination after pretreatment with VC and VK3, incubation time 2 days, VC:HT-1 200:1 mixture, 2 h pretreatment with 150 μM VC and 1.5 μM VK3.

Consider `Oc1ccc(C#Cc2ccc(O)cc2)cc1` [HT-1, 4,4′-dihydroxytolan], for which the IC50 in [1] (setting [6]) is 21.5 µM; in series [1] (setting [7]), 10.5 ± 2.7 µM; in series [1] (setting [8]), 1.13 µM; in series [1] (setting [9]), 0.94 ± 0.55 µM. Also, the results for the “increase of cytotoxic potency in the combination over compound alone” value in series [1] (after 1 day) and in series [1] (after 2 days) were “about 19 fold” and “about 11 fold”, respectively.
In the case of `O=C1O[C@H]([C@@H](O)CO)C([O-])=C1O.[Na+]` [VC, sodium ascorbate], the IC50 is 849 µM in series [1] (setting [6]), 896 ± 59.8 µM in series [1] (setting [7]), 226 µM in [1] (setting [8]) and 187 ± 99 µM in [1] (setting [9]). Further, the “mean survival time (MST)” value in the series with terminal cancer patients (100 terminal cancer patients, 10 g/day i.v. for 10 days, then 10 g/day orally, controls 50 days) is given as greater than 210 days. In addition, the “MST, ovarian cancer subjects” value with terminal cancer patients (six treated subjects with ovarian cancer, controls 71 days) is 148 days. In series [2], the “effectiveness of oral VC” value is given as “no benefits”. Further, the “mortality, weight changes, blood chemistry, hematology, histology, other pathologies” value in the series with Mice is “no abnormal rates”.
As to `CC1=CC(=O)c2ccccc2C1=O` [VK3, 2-methyl-1,4-naphthoquinone], the long term survivors in the series on hepatoma was 5 out of 16. Besides, the survival in the series on hepatoma (controls 17 days) is listed as 60 days. For the same compound, the “inhibition of tumor growth” value in the series on tumor growth (VK3 225 mg/kg/day with methotrexate) was 84%; in the series with tumor growth (menadione 250 mg/kg/day with methotrexate 0.75 mg/kg/day) it was 99%. Besides, in [3] (23 patients), the median survival is on record as 5.5 months. The “patients with hematologic toxicity” value in series [3] is on record as 30%. Also, the “patients with some tumor regression” value in series [3] was 26%. For the same compound, the objective response entry in series [4] is on record as “no objective response”. Moreover, in the series on livers of nude mice, the hepatotoxicity result was “no hepatotoxicity”. In series [5] (bisulfate form), the water solubility result is reported as “water soluble”. For the same compound, in the series with humans (48-hour i.v. infusion, followed by mitomycin C every four weeks), the maximum tolerated dose was 2.5 g/m^2. Besides, the toxicity entry in the series with humans (400-500 mg/day over 3-5 consecutive days) is given as “without any appreciable toxicity”. Further, the hemolysis entry in the series on humans (VK3 2.5 g/m^2 then mitomycin C 15 mg/m2 every four weeks) is “no hemolysis”.
For `Oc1ccc(/C=C/c2cc(O)cc(O)c2)cc1` [resveratrol, 3,5,4′-trihydroxy-trans-stilbene], the aqueous solubility entry in series [5] was “relatively low aqueous solubility”. The “toxicity to normal cells” value with normal cells is “significantly toxic to normal cells”.
